Test results taken from patent US20200009029A1, “COSMETIC COMPOSITION COMPRISING WATER DEPLETED IN 2H AND 18O ISOTOPS” (MEDENA AG, priority 2016, published 2020).

Key:
[1] = Superoxide scavenging activity (antioxidant capacity), superoxide dismutase dependent reduction of cytochrome c; format: biochemical
[2] = Stability of verbascoside in merystem cell homogenate / carboxyl methyl cellulose mixture over thirty days (HPLC); format: physicochemical; settings: 0.1 weight-% carboxyl methyl cellulose, initial 100 μM, darkness, 25° C., 30 days
Description: Merystem plant cells containing highly oxydisable active principles such as polyphenols (in this example verbascoside) were homogenized in ^18O and ^2H depleted (De-O,D) water having a concentration of 99.894 weight-% (and for comparison in distilled natural water). A hydrogel-forming substance, namely carboxyl methyl cellulose was added to the solutions in a concentration of 0.1 weight-%. The final concentration of verbascoside in the mixture was determined to be 100 μM by HPLC method using chromatographic standard of verbascoside. This concentration corresponds to 6 mg/100 ml or 0.006 weight-%. The maximum of the absorbance spectrum was obtained at 278 nm and retention time 15.65 min. The mixture was left in darkness at room temperature (25° C.) for thirty days. After this period, the mixture was analyzed for the presence and concentration of verbascoside.

Compound: C[C@@H]1O[C@@H](O[C@@H]2[C@@H](O)[C@H](OCCc3ccc(O)c(O)c3)O[C@H](CO)[C@H]2OC(=O)/C=C/c2ccc(O)c(O)c2)[C@H](O)[C@H](O)[C@H]1O [verbascoside]
- superoxide scavenging activity (antioxidant capacity) ([1]; mixture in natural water, day 30): not measurable
- superoxide scavenging activity (antioxidant capacity) ([1]; mixture with De-O,D water, carboxy methyl cellulose and merystem cell homogenate, to day 30): remained practically unchanged
- superoxide scavenging activity (antioxidant capacity) ([1]; mixtures of Example 1, day 0): possessed superoxide scavenging activity
- presence and concentration of verbascoside after thirty days (HPLC) ([2]; mixture in 18O and 2H depleted (De-O,D) water): retained practically the initial levels
- presence and concentration of verbascoside after thirty days (HPLC) ([2]; mixture in distilled natural water): did not contain any measurable amounts
